This test addresses human AMPK (full-length γ1, β1 and α1 subunits) (Homo sapiens (Human), UniProt Q13131+Q9Y478). Briefly: AMPK in vitro biochemical assay (33P-based, SAMS peptide, PP2A dephosphorylation). To be noted: for EC50: activation of phosphorylated AMPK, 33P-ATP, SAMS peptide, PP2A treatment, 4-parameter fit; for Emax / Maximum: counts as % of positive control wells (enzyme, allosteric activator or AMP, PP2A and substrate); for Emax: read-out: Maximum. The method, boiled down:
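Phosphorylated full-length α1β1γ1 AMPK (E. coli-expressed, His-purified, gel-filtered) preincubated 15 min RT with compound in HEPES pH 7.5, 10 mM MgCl2 buffer, then PP2A added to dephosphorylate pThr172.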

35 compounds from patent publication US9394285B2 (Pfizer Inc., priority 2013, dated 2016) can be followed below.

“And” between values parts separate entries of the source, which are not always exact repeats. Identical values can stand only once.

Sequence of human AMPK (full-length γ1, β1 and α1 subunits) (Q13131 whole entry): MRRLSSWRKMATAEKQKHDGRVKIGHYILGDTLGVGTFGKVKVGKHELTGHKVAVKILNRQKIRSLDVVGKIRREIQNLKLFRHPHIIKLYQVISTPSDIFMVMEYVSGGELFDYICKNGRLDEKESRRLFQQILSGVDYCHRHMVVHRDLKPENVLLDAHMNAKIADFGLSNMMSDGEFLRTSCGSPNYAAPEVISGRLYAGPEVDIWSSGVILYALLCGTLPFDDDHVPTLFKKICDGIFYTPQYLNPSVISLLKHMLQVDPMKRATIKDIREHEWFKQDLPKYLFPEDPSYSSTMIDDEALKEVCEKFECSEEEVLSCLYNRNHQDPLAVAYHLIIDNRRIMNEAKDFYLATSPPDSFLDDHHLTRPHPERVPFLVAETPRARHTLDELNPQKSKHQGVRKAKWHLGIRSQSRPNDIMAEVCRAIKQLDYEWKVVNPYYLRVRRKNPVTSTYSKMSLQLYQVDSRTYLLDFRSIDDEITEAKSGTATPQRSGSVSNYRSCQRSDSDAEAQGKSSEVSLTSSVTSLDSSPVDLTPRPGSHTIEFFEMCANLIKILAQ
Sequence of human AMPK (full-length γ1, β1 and α1 subunits) (Q9Y478 whole entry): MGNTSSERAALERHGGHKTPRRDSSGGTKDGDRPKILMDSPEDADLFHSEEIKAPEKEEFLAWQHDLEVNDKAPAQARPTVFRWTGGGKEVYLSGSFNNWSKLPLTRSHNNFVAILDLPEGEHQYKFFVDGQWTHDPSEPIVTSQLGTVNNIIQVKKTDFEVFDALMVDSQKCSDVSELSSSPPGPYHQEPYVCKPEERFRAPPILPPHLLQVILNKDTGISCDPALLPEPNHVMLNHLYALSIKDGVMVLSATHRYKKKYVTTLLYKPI
Sequence of human AMPK (full-length γ1, β1 and α1 subunits) (P54619 whole entry partner): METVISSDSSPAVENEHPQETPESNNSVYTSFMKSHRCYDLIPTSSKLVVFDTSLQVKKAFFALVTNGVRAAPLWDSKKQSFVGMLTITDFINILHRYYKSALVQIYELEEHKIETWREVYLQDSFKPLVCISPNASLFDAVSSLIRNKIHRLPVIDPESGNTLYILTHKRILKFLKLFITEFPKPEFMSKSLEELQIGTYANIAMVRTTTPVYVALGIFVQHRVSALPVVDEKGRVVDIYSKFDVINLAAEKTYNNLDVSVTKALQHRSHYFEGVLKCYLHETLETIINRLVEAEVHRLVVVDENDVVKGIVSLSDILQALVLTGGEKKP

With `O=C(O)c1c[nH]c2cc(Cl)c(-c3ccc(OCCn4cccn4)cc3)cc12` [Example 180, 6-chloro-5-{4-[2-(1H-pyrazol-1-yl)ethoxy]phenyl}-1H-indole-3-carboxylic acid], it took 11.6 nM to reach a half-maximal effect (EC50) and the Emax is 76.2%.

In the case of `COc1nc(N2CCC(O)C2)ccc1-c1cc2c(C(=O)O)c[nH]c2cc1Cl` (centres unmarked) [Example 161, 6-chloro-5-[6-(3-hydroxypyrrolidin-1-yl)-2-methoxypyridin-3-yl]-1H-indole-3-carboxylic acid], the EC50 (usually the concentration that produces a half-maximal response) was 8.33 nM and the Emax was found to be 92.9%.

As to `COc1ccc(-c2cc3c(C(=O)O)n[nH]c3cc2Cl)cc1` [Example 97, 6-Chloro-5-(4-methoxyphenyl)-1H-indazole-3-carboxylic acid], a half-maximal response (EC50) required 202 nM and the Emax was 94%.

On to `O=C(O)c1c[nH]c2cc(F)c(-c3ccc(C4(CO)CC4)cc3)c(F)c12` [Example 22, 4,6-difluoro-5-(4-(1-(hydroxymethyl)cyclopropyl)phenyl)-1H-indole-3-carboxylic acid], for which it took 13.7 nM to reach a half-maximal effect (EC50) and the Emax came out at 122%.

As for `CC(CO)Oc1ccc(-c2cc3c(C(=O)O)c[nH]c3cc2Cl)cc1` (centres unmarked) [Example 183, 6-chloro-5-{4-[(1-hydroxypropan-2-yl)oxy]phenyl}-1H-indole-3-carboxylic acid], the EC50 was found to be 28.1 nM and the Emax came out at 87.3%.

Regarding `CS(=O)(=O)N1CCCC1c1ccc(-c2cc3c(C(=O)O)c[nH]c3cc2Cl)cc1` (centres unmarked) [Example 84, 6-chloro-5-{4-[1-(methylsulfonyl)pyrrolidin-2-yl]phenyl}-1H-indole-3-carboxylic acid], the response was half-maximal at 344 nM (EC50) and the Emax was found to be 72%.

Turning to `O=C(O)c1c[nH]c2cc(Cl)c(-c3ccc(OCCCN4CCNCC4)cc3)cc12` [Example 52, 6-chloro-5-{4-[3-(piperazin-1-yl)propoxy]phenyl}-1H-indole-3-carboxylic acid], the EC50 worked out at 38.1 nM and the Emax is 91%.

For `O=C(O)c1c[nH]c2cc(Cl)c(-c3ccc(C4CCCN4)cc3)cc12` (centres unmarked) [Example 83, 6-chloro-5-[4-(pyrrolidin-2-yl)phenyl]-1H-indole-3-carboxylic acid], the EC50 is 819 nM and the Emax was found to be 108%.

In the case of `O=C(O)c1n[nH]c2cc(Cl)c(-c3ccc(C4CC(O)C4)cc3)cc12` [Example 120, 6-Chloro-5-(4-((1S,3S)-3-hydroxycyclobutyl)phenyl)-1H-indazole-3-carboxylic acid], the Maximum stood at 88%.

As to `O=C(O)c1c[nH]c2cc(Cl)c(-c3ccc(C4CCN4)cc3)cc12` (centres unmarked) [Example 63, 5-(4-azetidin-2-yl-phenyl)-6-chloro-1H-indole-3-carboxylic acid], the EC50 was 432 nM and the Emax turned out to be 89%.

For `COc1nc(N2CCC(OC)C2)ccc1-c1cc2c(C(=O)O)c[nH]c2cc1Cl` (stereo in doubt) [Example 176, 6-chloro-5-{2-methoxy-6-[(3S)-3-methoxypyrrolidin-1-yl]pyridin-3-yl}-1H-indole-3-carboxylic acid], it took 5.6 nM to reach a half-maximal effect (EC50) and the Emax was 62.4%.

`O=C(O)c1n[nH]c2cc(Cl)c(-c3ccc(N4CCOCC4)cc3)cc12` [Example 128, 6-Chloro-5-(4-morpholinophenyl)-1H-indazole-3-carboxylic acid]: the EC50 is 19.8 nM and the Emax worked out at 70%.

As for `O=C(O)c1c[nH]c2cc(Cl)c(-c3ccc(-c4ccccc4)cc3)cc12` [Example 43, 5-(biphenyl-4-yl)-6-chloro-1H-indole-3-carboxylic acid], the response was half-maximal at 1.7 nM (EC50) and the Emax was found to be 68%.

`O=C(O)c1c[nH]c2cc(F)c(-c3ccc(C4(CO)CCC4)cc3)c(F)c12` [Example 167, 4,6-difluoro-5-{4-[1-(hydroxymethyl)cyclobutyl]phenyl}-1H-indole-3-carboxylic acid]: the EC50 was 9.33 nM and the Maximum was determined as 143.1%.

Regarding `CC(C)(CO)c1ccc(-c2c(F)cc3[nH]cc(C(=O)O)c3c2F)cc1` [Example 26, 4,6-difluoro-5-[4-(1-hydroxy-2-methylpropan-2-yl)phenyl]-1H-indole-3-carboxylic acid], the EC50 came to 124 nM and the Emax is 74%.

For the compound `O=C(O)c1c[nH]c2cc(Cl)c(-c3ccc(CCCO)cc3)cc12` [Example 80, 6-chloro-5-[4-(3-hydroxypropyl)phenyl]-1H-indole-3-carboxylic acid], the EC50 turned out to be 182 nM and the Emax turned out to be 108%.

`CS(=O)(=O)NC(=O)c1c[nH]c2cc(Cl)c(-c3ccc(C4(O)CCC4)cc3)cc12` [Example 147, 6-chloro-5-[4-(1-hydroxycyclobutyl)phenyl]-N-(methylsulfonyl)-1H-indole-3-carboxamide]: the EC50 came out at 10.1 nM and the Emax was 132%.

`O=C(O)c1n[nH]c2cc(Cl)c(-c3cccc(O)c3)cc12` [Example 112, 6-Chloro-5-(3-hydroxyphenyl)-1H-indazole-3-carboxylic acid]: the EC50 stood at 1320 nM and the Emax was found to be 80%.

For `O=C(O)c1c[nH]c2cc(F)c(-c3ccc(C4(CO)CCC4)cc3)c(F)c12` [Example 141, 4,6-difluoro-5-(4-(1-(hydroxymethyl)cyclobutyl)phenyl)-1H-indole-3-carboxylic acid], the EC50 amounted to 9.3 nM and the Maximum came out at 119%.

With `COc1ccc(-c2cc3c(C(=O)O)c[nH]c3cc2Cl)cc1` [Example 33, 6-Chloro-5-(4-methoxy-phenyl)-1H-indole-3-carboxylic acid], it took 85.3 nM to reach a half-maximal effect (EC50) and the Emax was found to be 83%.

As for `O=C(O)c1c[nH]c2cc(Cl)c(-c3ccc(OCCN4CCOCC4)cc3)cc12` [Example 19, 6-chloro-5-{4-[2-(morpholin-4-yl)ethoxy]phenyl}-1H-indole-3-carboxylic acid], the response was half-maximal at 383 nM (EC50) and the Emax worked out at 96%.

`O=C(O)c1c[nH]c2cc(Cl)c(-c3ccc(C4(O)COC4)cc3)cc12` [Example 5, 6-Chloro-5-(4-(3-hydroxyoxetan-3-yl)phenyl)-1H-indole-3-carboxylic acid]: it took 35.7 nM to reach a half-maximal effect (EC50) and the Emax stood at 78%.

In the case of `CC(C)(CO)c1ccc(-c2cc3c(C(=O)O)c[nH]c3cc2Cl)cc1F` [Example 163, 6-chloro-5-[3-fluoro-4-(1-hydroxy-2-methylpropan-2-yl)phenyl]-1H-indole-3-carboxylic acid], the EC50 is 12.9 nM and 10.3 nM; the Emax turned out to be 110%.

As for `COc1cc(-c2cc3c(C(=O)O)c[nH]c3cc2Cl)ccc1C1(O)CCC1` [Example 61, 6-chloro-5-[4-(1-hydroxycyclobutyl)-3-methoxyphenyl]-1H-indole-3-carboxylic acid], the EC50 amounted to 2.3 nM and the Emax stood at 57%.

As to `N#Cc1cc2[nH]cc(C(=O)O)c2cc1-c1ccc(OCCO)cc1` [Example 95, 6-cyano-5-[4-(2-hydroxyethoxy)phenyl]-1H-indole-3-carboxylic acid], the EC50 worked out at 830 nM and the Emax turned out to be 91%.

Turning to `CC(=O)N1CC(Oc2ccc(-c3cc4c(C(=O)O)c[nH]c4cc3Cl)cc2)C1` [Example 8, 5-{4-[(1-acetylazetidin-3-yl)oxy]phenyl}-6-chloro-1H-indole-3-carboxylic acid], the EC50 was found to be 220 nM and the Emax was 94%.

`NC(=O)Cc1ccc(-c2cc3c(C(=O)O)n[nH]c3cc2Cl)cc1` [Example 123, 5-(4-(2-Amino-2-oxoethyl)phenyl)-6-chloro-1H-indazole-3-carboxylic acid]: the midpoint of the response, the EC50, lay at 100 nM and the Emax was determined as 57%.

For the compound `COc1cc(-c2cc3c(C(=O)O)c[nH]c3cc2Cl)ccc1OCCCO` [Example 59, 6-chloro-5-[4-(3-hydroxypropoxy)-3-methoxyphenyl]-1H-indole-3-carboxylic acid], the EC50 worked out at 133 nM and the Emax was found to be 75%.

`Cc1cc2[nH]cc(C(=O)O)c2cc1-c1ccc(C2(CO)CC2)cc1` [Example 27, 5-{4-[1-(hydroxymethyl)cyclopropyl]phenyl}-6-methyl-1H-indole-3-carboxylic acid]: the EC50 is 36.9 nM and the Emax is 107%.

With `O=C(O)c1c[nH]c2cc(F)c(-c3ccc(C4CCCO4)cc3)c(F)c12` (single isomer, unassigned) [Example 152, 4,6-difluoro-5-[4-(tetrahydrofuran-2-yl)phenyl]-1H-indole-3-carboxylic acid], the EC50 was determined as 16.7 nM.

Take `CC(=O)NCCOc1ccc(-c2cc3c(C(=O)O)c[nH]c3cc2Cl)cc1` [Example 10, 5-{4-[2-(acetylamino)ethoxy]phenyl}-6-chloro-1H-indole-3-carboxylicacid]: a half-maximal response (EC50) required 69.9 nM and the Emax stood at 91%.

As for `CC(C)(O)c1ccc(-c2cc3c(C(=O)O)n[nH]c3cc2Cl)cc1` [Example 102, 6-Chloro-5-(4-(2-hydroxypropan-2-yl)phenyl)-1H-indazole-3-carboxylic acid], a half-maximal response (EC50) required 33.7 nM and the Emax came out at 79%.

`O=C(O)c1c[nH]c2cc(Cl)c(-c3ccc(OCc4ncccn4)cc3)cc12` [Example 160, 6-chloro-5-[4-(pyrimidin-2-ylmethoxy)phenyl]-1H-indole-3-carboxylic acid]: the EC50 came out at 17.3 nM and the Emax was determined as 118%.

For the compound `CN1CCN(CCCOc2ccc(-c3cc4c(C(=O)O)c[nH]c4cc3Cl)cc2)CC1` [Example 53, 6-chloro-5-{4-[3-(4-methylpiperazin-1-yl)propoxy]phenyl}-1H-indole-3-carboxylic acid], the EC50 came to 22 nM and the Emax stood at 120%.

As for `O=C(O)c1c[nH]c2cc(Cl)c(-c3ccc(C4(O)CCC4)cc3F)cc12` [Example 13, 6-chloro-5-[2-fluoro-4-(1-hydroxycyclobutyl)phenyl]-1H-indole-3-carboxylic acid], the EC50 turned out to be 6.9 nM and the Emax came to 73%.
